# Reference: paper PMC13267291, “In vivo functional profiling and structural characterization of the human GLP1R A316T variant” (Science Advances, 2026)
# How the values were obtained:
# [1] = system: SNAP/FLAG-hGLP1R^A316T versus ^WT; assay: GLP-1R recruitment to detergent-resistant membrane fractions (lipid rafts); format: cell-based, human; conditions: 100 nM, 2 min; fold to vehicle; n = 5; Fig. 8G
# Procedure: signal serially monitored for 30 min. The TR-FRET ratio, i.e. the ratio of fluorescence intensities at 590 and 490 nm, was considered indicative of the proximity of the GLP-1R ECD to the plasma membrane.
# Baseline-normalised AUCs were used to generate concentration– response curves fitted using GraphPad Prism 10.1.2, with logEC50 and Emax calculated for each replicate dose response curve.
# Real- time c ytosolic c alcium a ssay hGLP1R-/- mouse islets were transduced with pAV- SNAP/FLAG-hGLP1RWT or A316T adenoviruses for 24 hours, labelled with the Ca2+ dye Cal-520, AM (4.5 μM; Stratech) diluted in KBRH buffer containing 6 mM glucose for 1 hour and encased in Matrigel onto […] glass bottom MatTek dishes. […] Raw fluorescence intensity traces from islet ROIs were extracted using Fiji. Responses were plotted relative to the average fluorescence intensity during the 6 mM glucose baseline period, before agonist addition, and AUCs separately calculated for the GLP- 1RA + 6 mM and 11 mM glucose […]
# were resuspended in 200 μL ice-cold PBS supplemented with cOmplete EDTA-free protease inhibitor cocktail (Roche) and phosphatase inhibitor cocktail 2 and 1% Triton X-100, followed by rotating incubation for 30 min at 4°C. […] GLP-1R enrichment into DRMs was calculated from SNAP over flotillin band intensity levels under the different conditions […]
# [2] = system: hGLP1R^A316T/A316T versus hGLP1R^+/+ mice; assay: IPGTT acutely and 6 hours after GLP-1RA, chow-fed homozygous mice; format: in vivo, mouse; conditions: chow diet; for Agonist-specific glycemic response (ΔAUC), 6-hour time point, A316T/A316T versus +/+: IPGTT 6 hours postadministration, n = 9; for Agonist-specific glycemic response (ΔAUC), 6-hour time point, A316T/A316T versus +/+ / Agonist-specific glycemic response (ΔAUC, agonist- minus vehicle-treated AUC), acute, A316T/A316T versus +/+: Fig. 1J,K; for Agonist-specific glycemic response (ΔAUC, agonist- minus vehicle-treated AUC), acute, A316T/A316T versus +/+: acute IPGTT, n = 9 per genotype
# Procedure: To examine acute and prolonged glycemic responses to GLP-1RAs, animals were fasted for 2 hours, starting at 8 a.m. on the morning of the experiments, before IPGTTs. GLP-1RAs were then coadministered at the indicated concentrations with 20% (w/v) D-glucose via intraperitoneal injection at weight-adjusted volumes. Baseline glucose readings were taken via tail venipuncture, and subsequent readings were taken at various time points after glucose ± GLP-1RA administration as for the OGTTs (0-hour acute IPGTTs). For GLP-1RAs with shorter half-lives (exendin-4 and exendin-F1), IPGTTs were repeated 6 hours after the start of the initial IPGTT, with continued fasting. For the extended half-life GLP-1RA semaglutide, IPGTTs were performed 24 and 72 hours after GLP-1RA administration, with access to food restored at the end of each IPGTT. The in vivo IPGTT studies were performed with a crossover design, with each mouse receiving vehicle and each GLP-1RA treatment with washout periods of at least 1 week between the different GLP-1RA treatments.
# [3] = system: hGLP1R^A316T/A316T versus hGLP1R^+/+ mice; assay: IPGTT after GLP-1RA, HFHS-fed homozygous mice; format: in vivo, mouse; conditions: HFHS diet; 2 nmol/kg ip; acute and 6 hours; n = 9; Fig. 2G-J
# Procedure: All animal procedures were approved by the British Home Office under the UK animals (Scientific Procedures) Act 1986 (Project License number PP7151519 to A. Martinez-Sanchez, Imperial College London, UK) and from the local ethical committee (Animal Welfare and Ethics Review Board) at the Central Biological Services unit of Imperial College London. Animals were housed in groups of up to four adult mice in individually ventilated cages under controlled conditions at 21° to 23°C with 12-hour:12-hour light-to-dark cycles (lights on at 07:00). Ad libitum access to water and feed was provided unless otherwise stated. Lean mice were fed a standard chow diet [RM1 (E); Special Diet Services]. For HFHS diet studies, animals were put on a 58 kcal % fat and sucrose diet (D12331, Research Diets Inc.) ad libitum for 10 to 14 weeks before experiments.
# To examine acute and prolonged glycemic responses to GLP-1RAs, animals were fasted for 2 hours, starting at 8 a.m. on the morning of the experiments, before IPGTTs. GLP-1RAs were then coadministered at the indicated concentrations with 20% (w/v) D-glucose via intraperitoneal injection at weight-adjusted volumes. Baseline glucose readings were taken via tail venipuncture, and subsequent readings were taken at various time points after glucose ± GLP-1RA administration as for the OGTTs (0-hour acute IPGTTs). […]
Substance,"Lipid raft segregation/localization in response to agonist, A316T versus WT [1]","Agonist-specific glycemic response (ΔAUC), 6-hour time point, A316T/A316T versus +/+ ([2]; 2 nmol/kg ip)","Agonist-specific glycemic response (ΔAUC, agonist- minus vehicle-treated AUC), acute, A316T/A316T versus +/+ ([2]; 2 nmol/kg ip)","IPGTT glucose responses, A316T/A316T versus +/+ [3]","IPGTT glucose responses (AUC), A316T/A316T versus +/+ ([2]; 2 nmol/kg ip, acutely and 6 hours postagonist, Fig. 1F-I)",Desensitization at the 6-hour IPGTT versus exendin-4 ([2]; both mouse genotypes)
GLP-1(7-36)NH2,no changes,–,–,–,–,–
exendin-4,significantly reduced,paradoxical increase in blood glucose levels compared to vehicle,significantly reduced,slightly more pronounced desensitization,–,–
exendin-F1,–,absent,similarly reduced,slightly more pronounced desensitization,without reaching statistical significance,reduced desensitization
